Test results reported in patent US9499553B2 (CHUGAI SEIYAKU KABUSHIKI KAISHA, priority 2013, dated 2016).

The compounds below were run against T1, human NaPi-IIb (Homo sapiens, UniProt O95436) (assay: Inhibitory effect on 33PO4 uptake into human NaPi-IIb-expressing CHO cells). Conditions: read-out: IC50.
T1 construct: expressed in transfected cells
T1 sequence (O95436 1-690): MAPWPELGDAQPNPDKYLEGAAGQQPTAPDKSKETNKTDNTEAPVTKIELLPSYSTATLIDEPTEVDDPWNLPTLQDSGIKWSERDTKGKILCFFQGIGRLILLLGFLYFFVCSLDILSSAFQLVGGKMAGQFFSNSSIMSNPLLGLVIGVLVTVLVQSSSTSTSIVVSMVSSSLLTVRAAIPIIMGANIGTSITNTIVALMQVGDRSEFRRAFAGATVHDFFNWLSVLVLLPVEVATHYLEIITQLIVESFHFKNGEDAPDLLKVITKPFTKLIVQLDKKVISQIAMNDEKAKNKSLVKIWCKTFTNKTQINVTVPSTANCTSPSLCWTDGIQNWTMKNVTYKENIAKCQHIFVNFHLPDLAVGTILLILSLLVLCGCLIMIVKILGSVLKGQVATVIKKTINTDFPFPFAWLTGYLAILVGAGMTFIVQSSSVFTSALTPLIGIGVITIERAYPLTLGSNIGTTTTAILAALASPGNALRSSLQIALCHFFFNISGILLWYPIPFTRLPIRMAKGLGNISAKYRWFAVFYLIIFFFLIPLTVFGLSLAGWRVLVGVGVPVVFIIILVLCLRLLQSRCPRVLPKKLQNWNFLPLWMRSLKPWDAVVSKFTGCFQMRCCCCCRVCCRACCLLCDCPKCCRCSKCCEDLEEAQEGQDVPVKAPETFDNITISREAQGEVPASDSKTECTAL
Assay type: cell-based
Summary of the method: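 Uptake of ³³PO4 was measured by scintillation counting after ice-cold buffer A washes. Cells were CHO stably expressing human NaPi-IIb, seeded overnight, and exposed to ³³PO4 in buffer A at room temperature.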

Structure (SMILES)	IC50 [µM]
COC(=O)c1cccc(CN2C(=O)C(C(=O)Nc3ccc(C(F)(F)F)cc3-c3cc(C(F)(F)F)ncn3)=C(O)[C@@]3(C)CCCN23)c1 [Example 183]	9.1
Cc1cccc(CN2C(=O)C(C(=O)Nc3ccc(C(F)(F)F)cc3-c3cc(C(F)(F)F)ncn3)=C(O)[C@@]3(C)CCCN23)c1 [Example 186]	5.5
Cc1ccc(CN2C(=O)C(C(=O)Nc3ccc(C(F)(F)F)cc3-c3cc(C(F)(F)F)ncn3)=C(O)[C@@]3(C)CCCN23)cc1 [Example 187]	6.7
C[C@]12CCCN1N(Cc1ccccc1)C(=O)C(C(=O)Nc1ccc(C(F)(F)F)cc1-c1cc(C(F)(F)F)ncn1)=C2O [Example 188]	6.1
C[C@]12CCCN1N(Cc1cccc(OC(F)(F)F)c1)C(=O)C(C(=O)Nc1ccc(C(F)(F)F)cc1-c1cc(C(F)(F)F)ncn1)=C2O [Example 189]	5.5
C[C@]12CCCN1N(Cc1ccc(F)c(F)c1)C(=O)C(C(=O)Nc1cc(F)c(Br)c(F)c1)=C2O [Example 191]	14.5
C[C@]12CCCN1N(Cc1ccc(F)cc1F)C(=O)C(C(=O)Nc1cc(F)c(Br)c(F)c1)=C2O [Example 192]	16.5
C[C@]12CCCN1N(Cc1cc(F)ccc1F)C(=O)C(C(=O)Nc1cc(F)c(Br)c(F)c1)=C2O [Example 193]	6.4
C[C@]12CCCN1N(Cc1cc(F)c(F)cc1F)C(=O)C(C(=O)Nc1cc(F)c(Br)c(F)c1)=C2O [Example 194]	19.3
C[C@]12CCCN1N(Cc1cc(F)c(F)c(F)c1)C(=O)C(C(=O)Nc1cc(F)c(Br)c(F)c1)=C2O [Example 197]	7
COc1cc(CN2C(=O)C(C(=O)Nc3ccc(C(F)(F)F)cc3-c3ccc(C(F)(F)F)nc3)=C(O)[C@@]3(C)CCCN23)cc(OC)c1 [Example 202]	6.1
C[C@]12CCCN1N(Cc1ccccc1F)C(=O)C(C(=O)Nc1ccc(C(F)(F)F)cc1-c1cc(C(F)(F)F)ncn1)=C2O [Example 207]	6.5
C[C@]12CCCN1N(Cc1ccc(F)cc1)C(=O)C(C(=O)Nc1ccc(C(F)(F)F)cc1-c1cc(C(F)(F)F)ncn1)=C2O [Example 208]	6.6
C[C@]12CCCN1N(Cc1cc(Cl)ccc1F)C(=O)C(C(=O)Nc1ccc(C(F)(F)F)cc1-c1cc(C(F)(F)F)ncn1)=C2O [Example 211]	5.7
C[C@]12CCCN1N(Cc1cc(F)cc(F)c1)C(=O)C(C(=O)Nc1ccc(C(F)(F)F)cc1-c1cc(C(F)(F)F)ncn1)=C2O [Example 213]	6.4
C[C@]12CCCN1N(Cc1ccc(F)c(F)c1)C(=O)C(C(=O)Nc1ccc(C(F)(F)F)cc1-c1cc(C(F)(F)F)ncn1)=C2O [Example 214]	7
Cc1cccc(CN2C(=O)C(C(=O)Nc3ccc(C(F)(F)F)cc3-c3cc(C(F)(F)F)ncn3)=C(O)[C@@]3(C)CCCN23)c1F [Example 215]	6.2
C[C@]12CCCN1N(Cc1ccccc1Br)C(=O)C(C(=O)Nc1cc(F)c(Br)c(F)c1)=C2O [Example 216]	8

Structure (SMILES)	IC50 [µM]
C[C@]12CCCN1N(Cc1ccccc1C#N)C(=O)C(C(=O)Nc1cc(F)c(Br)c(F)c1)=C2O [Example 218]	7.2
C[C@]12CCCN1N(Cc1cccc(C#N)c1)C(=O)C(C(=O)Nc1cc(F)c(Br)c(F)c1)=C2O [Example 220]	12.2
C[C@]12CCCN1N(Cc1cccc(Cl)c1)C(=O)C(C(=O)Nc1cc(F)c(Br)c(F)c1)=C2O [Example 221]	6.6
C[C@]12CCCN1N(Cc1ccc(C#N)cc1)C(=O)C(C(=O)Nc1cc(F)c(Br)c(F)c1)=C2O [Example 222]	17.6
C[C@]12CCCN1N(Cc1ccc(Cl)cc1)C(=O)C(C(=O)Nc1cc(F)c(Br)c(F)c1)=C2O [Example 223]	17.9
C[C@]12CCCN1N(Cc1ccc(F)c(Br)c1)C(=O)C(C(=O)Nc1cc(F)c(Br)c(F)c1)=C2O [Example 224]	7.2
C[C@]12CCCN1N(CCCC(F)(F)F)C(=O)C(C(=O)Nc1ccc(C(F)(F)F)cc1-c1cc(C(F)(F)F)ncn1)=C2O [Example 234]	9.4
COCCOCCOCCCCCCCCN1C(=O)C(C(=O)Nc2ccc(C(F)(F)F)cc2-c2cc(C(F)(F)F)ncn2)=C(O)[C@@]2(C)CCCN12 [Example 236]	24.7
CN1[C@@H](C(C)(C)C)C(O)=C(C(=O)Nc2ccc(Cl)cc2-c2cc(C(F)(F)F)ncn2)C(=O)N1Cc1cccc(F)c1F [Example 237]	12.8
CN1[C@@H](C(C)(C)C)C(O)=C(C(=O)Nc2ccc(C(F)(F)F)cc2-c2ccc(C(F)(F)F)nc2)C(=O)N1Cc1cccc(F)c1F [Example 238]	8.5
CN1[C@@H](C(C)(C)C)C(O)=C(C(=O)Nc2ccc(Cl)cc2-c2ccc(C(F)(F)F)nc2)C(=O)N1Cc1cccc(F)c1F [Example 239]	8.5
CN1[C@@H](C(C)(C)C)C(O)=C(C(=O)Nc2cc(F)c(Br)c(F)c2)C(=O)N1Cc1cccc(F)c1F [Example 240]	9.1
Cc1nc(NC(=O)C2=C(O)[C@H](C(C)(C)C)N(C)N(Cc3cccc(F)c3F)C2=O)ccc1Br [Example 241]	16.5
CN1[C@@H](C(C)(C)C)C(O)=C(C(=O)Nc2ccc(Br)c(C(F)(F)F)n2)C(=O)N1Cc1cccc(F)c1F [Example 242]	7.8
CN1[C@@H](C(C)(C)C)C(O)=C(C(=O)Nc2ccc(Br)c(C(F)(F)F)c2)C(=O)N1Cc1cccc(F)c1F [Example 243]	7.4
CN1[C@@H](C(C)(C)C)C(O)=C(C(=O)Nc2cccc(C(F)(F)F)n2)C(=O)N1Cc1cccc(F)c1F [Example 244]	7.3
CCN1[C@@H](C(C)(C)C)C(O)=C(C(=O)Nc2ccc(Cl)cc2-c2ccc(C(F)(F)F)nc2)C(=O)N1Cc1cccc(F)c1F [Example 245]	7.7
CCN1[C@@H](C(C)(C)C)C(O)=C(C(=O)Nc2cc(F)c(Br)c(F)c2)C(=O)N1Cc1cccc(F)c1F [Example 246]	8.6

Compounds with a lower IC50, results first:

IC50 [µM]	Structure (SMILES)
4.8	C[C@]12CCCN1N(Cc1cccc(Cl)c1)C(=O)C(C(=O)Nc1ccc(C(F)(F)F)cc1-c1cc(C(F)(F)F)ncn1)=C2O [Example 181]
5.1	C[C@]12CCCN1N(Cc1ccc(Cl)cc1)C(=O)C(C(=O)Nc1ccc(C(F)(F)F)cc1-c1cc(C(F)(F)F)ncn1)=C2O [Example 182]
4.9	Cc1ccccc1CN1C(=O)C(C(=O)Nc2ccc(C(F)(F)F)cc2-c2cc(C(F)(F)F)ncn2)=C(O)[C@@]2(C)CCCN12 [Example 185]
5.1	C[C@]12CCCN1N(Cc1cc(F)cc(F)c1)C(=O)C(C(=O)Nc1cc(F)c(Br)c(F)c1)=C2O [Example 190]
4.6	Cc1cccc(CN2C(=O)C(C(=O)Nc3cc(F)c(Br)c(F)c3)=C(O)[C@@]3(C)CCCN23)c1F [Example 195]
2.4	C[C@]12CCCN1N(Cc1cccc(Cl)c1F)C(=O)C(C(=O)Nc1ccc(C(F)(F)F)cc1-c1ccc(C(F)(F)F)nc1)=C2O [Example 198]
1.8	C[C@]12CCCN1N(Cc1ccc(F)cc1)C(=O)C(C(=O)Nc1ccc(C(F)(F)F)cc1-c1ccc(C(F)(F)F)nc1)=C2O [Example 199]
1.3	C[C@]12CCCN1N(Cc1ccccc1F)C(=O)C(C(=O)Nc1ccc(C(F)(F)F)cc1-c1ccc(C(F)(F)F)nc1)=C2O [Example 200]
1.3	C[C@]12CCCN1N(Cc1cccc(F)c1Cl)C(=O)C(C(=O)Nc1ccc(C(F)(F)F)cc1-c1ccc(C(F)(F)F)nc1)=C2O [Example 201]
2	C[C@]12CCCN1N(Cc1c(F)cccc1F)C(=O)C(C(=O)Nc1ccc(C(F)(F)F)cc1-c1ccc(C(F)(F)F)nc1)=C2O [Example 203]
1	C[C@]12CCCN1N(Cc1c(F)cccc1Cl)C(=O)C(C(=O)Nc1ccc(C(F)(F)F)cc1-c1ccc(C(F)(F)F)nc1)=C2O [Example 204]
1.6	Cc1cccc(CN2C(=O)C(C(=O)Nc3ccc(C(F)(F)F)cc3-c3ccc(C(F)(F)F)nc3)=C(O)[C@@]3(C)CCCN23)c1F [Example 205]
2	C[C@]12CCCN1N(Cc1cccc(F)c1)C(=O)C(C(=O)Nc1ccc(C(F)(F)F)cc1-c1ccc(C(F)(F)F)nc1)=C2O [Example 206]
4.8	C[C@]12CCCN1N(Cc1cccc(Cl)c1F)C(=O)C(C(=O)Nc1ccc(C(F)(F)F)cc1-c1cc(C(F)(F)F)ncn1)=C2O [Example 209]
1.7	C[C@]12CCCN1N(Cc1c(F)cccc1Cl)C(=O)C(C(=O)Nc1ccc(C(F)(F)F)cc1-c1cc(C(F)(F)F)ncn1)=C2O [Example 210]
4.7	C[C@]12CCCN1N(Cc1cc(F)ccc1Br)C(=O)C(C(=O)Nc1cc(F)c(Br)c(F)c1)=C2O [Example 217]
4.2	C[C@]12CCCN1N(Cc1ccccc1Cl)C(=O)C(C(=O)Nc1cc(F)c(Br)c(F)c1)=C2O [Example 219]
4.8	CCOC(=O)CCCCCCN1C(=O)C(C(=O)Nc2ccc(C(F)(F)F)cc2-c2ccc(C(F)(F)F)nc2)=C(O)[C@@]2(C)CCCN12 [Example 235, Ethyl 7-[(4aR)-4-hydroxy-4a-methyl-2-oxo-3-[[4-(trifluoromethyl)-2-[6-(trifluoromethyl)pyridin-3-yl]phenyl]carbamoyl]-6,7-dihydro-5H-pyrrolo[1,2-b]pyridazin-1-yl]heptanoate]
